Results published in patent US9198423B2, “Active compound combinations” (BAYER INTELLECTUAL PROPERTY GMBH, priority 2011, dated 2015).

How the values were obtained:
Alternaria solani = assay: Alternaria test (tomatoes)/preventive; assay type: in vivo, Alternaria solani on tomatoes; settings: preventive spray, evaluated 3 days after inoculation
Method: Alternaria Test (Tomatoes)/Preventive [table] To produce a suitable preparation of active compound, 1 part by weight of active compound is mixed with the stated amounts of solvent and emulsifier, and the concentrate is diluted with water to the desired concentration. To test for preventive activity, young plants are sprayed with the preparation of active compound at the stated rate of application. After the spray coating has dried on, the plants are inoculated with an aqueous spore suspension of Alternaria solani. The plants are then placed in an incubation cabinet at approximately 20° C. and a relative atmospheric humidity of 100%. The test is evaluated 3 days after the inoculation. 0% means an efficacy which corresponds to that of the untreated control while an efficacy of 100% means that no disease is observed.

Venturia inaequalis = assay: Venturia test (apples)/preventive; assay type: in vivo, Venturia inaequalis on apples; settings: preventive spray, evaluated 10 days after inoculation
Method: Venturia Test (Apples)/Preventive [table] To produce a suitable preparation of active compound, 1 part by weight of active compound is mixed with the stated amounts of solvent and emulsifier, and the concentrate is diluted with water to the desired concentration. To test for preventive activity, young plants are sprayed with the preparation of active compound at the stated rate of application. After the spray coating has dried on, the plants are inoculated with an aqueous conidia suspension of the causal agent of apple scab (Venturia inaequalis) and then remain for 1 day in an incubation cabinet at approximately 20° C. and a relative atmospheric humidity of 100%. The plants are then placed in a greenhouse at approximately 21° C. and a relative atmospheric humidity of approximately 90%. The test is evaluated 10 days after the inoculation. 0% means an efficacy which corresponds to that of the untreated control, while an efficacy of 100% means that no disease is observed.

Compound | Efficacy in % found (Alternaria solani; application rate 10 ppm a.i.) | Efficacy in % found (Venturia inaequalis; application rate 10 ppm a.i.) | Efficacy in % found (Alternaria solani; application rate 40 ppm a.i.) | Efficacy in % found (Venturia inaequalis; application rate 40 ppm a.i.)
OC(Cc1ccccc1Cl)(Cn1nc[nH]c1=S)C1(Cl)CC1 (stereo not shown) [(A) Prothioconazole, Prothioconazole] | 50% | 43% | – | –
CC(C)NC(=O)N1CC(=O)N(c2cc(Cl)cc(Cl)c2)C1=O [(B) Iprodione, Iprodione] | – | – | 70% | 3%
